According to the kinase profiling compilation of Christmann-Franck et al. (2016):

Each molecule was assayed against AKT3 (human) (UniProt Q9Y243) (assay: radiometric filter-binding kinase assay, Kinase HotSpot). Conditions: compound 0.5 µM; ATP 10 µM.
Sequence of AKT3 (human) (Q9Y243 whole entry, looked up): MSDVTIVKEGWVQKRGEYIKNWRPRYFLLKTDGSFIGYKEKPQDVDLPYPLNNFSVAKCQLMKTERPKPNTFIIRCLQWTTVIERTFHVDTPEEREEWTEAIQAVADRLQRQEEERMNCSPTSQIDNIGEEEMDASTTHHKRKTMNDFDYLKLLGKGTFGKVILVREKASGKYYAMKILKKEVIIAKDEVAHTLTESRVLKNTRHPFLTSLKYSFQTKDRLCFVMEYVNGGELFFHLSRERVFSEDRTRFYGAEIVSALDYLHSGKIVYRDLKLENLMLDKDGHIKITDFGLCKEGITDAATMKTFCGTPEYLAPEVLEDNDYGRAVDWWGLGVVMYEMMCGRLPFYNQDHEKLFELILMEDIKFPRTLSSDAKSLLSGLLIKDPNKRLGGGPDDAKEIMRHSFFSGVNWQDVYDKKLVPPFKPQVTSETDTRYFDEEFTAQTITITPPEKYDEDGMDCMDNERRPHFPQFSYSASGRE

SMILES | residual activity [%]
C#Cc1cccc(Nc2ncnc3cc(OCCOC)c(OCCOC)cc23)c1 | 74.6
CC(C)(C)c1nc2c3ccc(F)cc3c3c(=O)[nH]ccc3c2[nH]1 | 76.4
CS(=O)c1ccc(-c2nc(-c3ccc(F)cc3)c(-c3ccncc3)[nH]2)cc1 (stereo not given) | 102

These molecules were tested against PTK6 (human) (UniProt Q13882) in the same assay as above. Conditions: compound 0.5 µM; ATP 10 µM.
Sequence of PTK6 (human) (Q13882 whole entry, looked up): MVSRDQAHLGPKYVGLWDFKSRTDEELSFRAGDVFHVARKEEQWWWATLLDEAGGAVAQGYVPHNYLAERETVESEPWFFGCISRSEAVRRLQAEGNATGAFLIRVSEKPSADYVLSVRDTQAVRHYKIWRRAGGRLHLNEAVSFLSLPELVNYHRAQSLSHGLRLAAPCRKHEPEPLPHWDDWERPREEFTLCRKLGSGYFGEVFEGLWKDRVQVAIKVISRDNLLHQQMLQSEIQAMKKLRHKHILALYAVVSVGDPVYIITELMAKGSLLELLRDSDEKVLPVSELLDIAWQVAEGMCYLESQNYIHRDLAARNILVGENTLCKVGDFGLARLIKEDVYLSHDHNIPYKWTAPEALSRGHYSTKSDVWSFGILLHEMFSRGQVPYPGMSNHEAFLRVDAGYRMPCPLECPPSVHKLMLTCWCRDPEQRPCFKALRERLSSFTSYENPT

SMILES | residual activity [%]
CC(C)[C@H](CO)Nc1nc(Nc2cccc(Cl)c2)c2ncn(C(C)C)c2n1 | 89.2
COc1cc2ncnc(Nc3ccc(F)c(Cl)c3)c2cc1OCCCN1CCOCC1 | 77.2
C#Cc1cccc(Nc2ncnc3cc(OCCOC)c(OCCOC)cc23)c1 | 85.9
CC(C)(C)c1nc2c3ccc(F)cc3c3c(=O)[nH]ccc3c2[nH]1 | 88
CS(=O)c1ccc(-c2nc(-c3ccc(F)cc3)c(-c3ccncc3)[nH]2)cc1 (stereo not given) | 54.2

The molecules below were run against AURKB (human) (UniProt Q96GD4) in the same assay as above. Conditions: compound 0.5 µM; ATP 10 µM.
Sequence of AURKB (human) (Q96GD4 whole entry, looked up): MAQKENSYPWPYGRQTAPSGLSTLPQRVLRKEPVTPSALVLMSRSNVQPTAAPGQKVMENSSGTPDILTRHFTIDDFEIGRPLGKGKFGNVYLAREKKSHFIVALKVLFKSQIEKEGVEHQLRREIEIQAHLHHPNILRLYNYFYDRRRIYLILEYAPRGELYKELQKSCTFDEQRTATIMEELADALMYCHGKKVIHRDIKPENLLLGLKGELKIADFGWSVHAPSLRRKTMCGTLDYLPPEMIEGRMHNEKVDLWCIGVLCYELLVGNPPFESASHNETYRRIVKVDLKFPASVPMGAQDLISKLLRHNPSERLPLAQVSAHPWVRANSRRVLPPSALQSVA

SMILES | residual activity [%]
CC(C)[C@H](CO)Nc1nc(Nc2cccc(Cl)c2)c2ncn(C(C)C)c2n1 | 97
COc1cc2ncnc(Nc3ccc(F)c(Cl)c3)c2cc1OCCCN1CCOCC1 | 106
CC(C)(C)c1nc2c3ccc(F)cc3c3c(=O)[nH]ccc3c2[nH]1 | 11.2
CS(=O)c1ccc(-c2nc(-c3ccc(F)cc3)c(-c3ccncc3)[nH]2)cc1 (stereo not given) | 87.7

What follows are molecules tested against ERBB4 (human) (UniProt Q15303) in the same assay as above. Conditions: compound 0.5 µM; ATP 10 µM.
Sequence of ERBB4 (human) (Q15303 whole entry, looked up): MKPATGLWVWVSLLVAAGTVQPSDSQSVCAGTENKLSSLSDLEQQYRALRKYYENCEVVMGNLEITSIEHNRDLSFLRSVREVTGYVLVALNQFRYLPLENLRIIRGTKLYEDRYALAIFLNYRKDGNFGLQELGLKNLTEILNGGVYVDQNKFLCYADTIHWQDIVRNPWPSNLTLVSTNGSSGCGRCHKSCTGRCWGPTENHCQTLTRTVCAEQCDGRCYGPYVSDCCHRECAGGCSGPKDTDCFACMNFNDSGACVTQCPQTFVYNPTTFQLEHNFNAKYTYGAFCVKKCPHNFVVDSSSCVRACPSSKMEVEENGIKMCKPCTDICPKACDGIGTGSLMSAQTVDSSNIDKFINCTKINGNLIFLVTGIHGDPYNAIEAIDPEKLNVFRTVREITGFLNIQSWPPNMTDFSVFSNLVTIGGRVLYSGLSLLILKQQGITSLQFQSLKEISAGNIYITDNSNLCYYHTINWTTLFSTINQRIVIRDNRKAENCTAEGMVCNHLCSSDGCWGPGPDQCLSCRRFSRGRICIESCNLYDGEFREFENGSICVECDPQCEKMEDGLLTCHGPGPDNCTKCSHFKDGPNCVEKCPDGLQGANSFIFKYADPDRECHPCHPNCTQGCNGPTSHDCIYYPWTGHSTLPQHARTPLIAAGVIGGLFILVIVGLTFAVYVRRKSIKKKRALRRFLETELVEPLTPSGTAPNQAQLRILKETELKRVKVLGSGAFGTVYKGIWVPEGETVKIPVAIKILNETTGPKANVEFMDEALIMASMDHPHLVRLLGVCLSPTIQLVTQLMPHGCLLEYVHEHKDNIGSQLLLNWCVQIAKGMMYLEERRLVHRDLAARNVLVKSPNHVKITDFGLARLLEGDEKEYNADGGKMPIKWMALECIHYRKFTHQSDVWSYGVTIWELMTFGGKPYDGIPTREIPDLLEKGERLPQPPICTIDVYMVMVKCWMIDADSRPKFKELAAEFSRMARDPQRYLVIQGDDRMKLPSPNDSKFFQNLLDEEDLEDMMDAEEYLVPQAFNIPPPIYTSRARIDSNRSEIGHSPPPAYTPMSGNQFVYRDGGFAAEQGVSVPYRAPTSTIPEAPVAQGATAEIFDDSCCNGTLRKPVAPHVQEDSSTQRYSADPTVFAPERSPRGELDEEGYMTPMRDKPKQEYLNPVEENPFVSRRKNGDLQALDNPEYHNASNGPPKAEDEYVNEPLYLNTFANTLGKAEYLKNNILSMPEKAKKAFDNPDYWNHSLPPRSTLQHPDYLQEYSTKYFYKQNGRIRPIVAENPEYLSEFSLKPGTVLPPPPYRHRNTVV

SMILES | residual activity [%]
CC(C)[C@H](CO)Nc1nc(Nc2cccc(Cl)c2)c2ncn(C(C)C)c2n1 | 78.4
COc1cc2ncnc(Nc3ccc(F)c(Cl)c3)c2cc1OCCCN1CCOCC1 | 24.2
C#Cc1cccc(Nc2ncnc3cc(OCCOC)c(OCCOC)cc23)c1 | 61.4
CC(C)(C)c1nc2c3ccc(F)cc3c3c(=O)[nH]ccc3c2[nH]1 | 99.9
CS(=O)c1ccc(-c2nc(-c3ccc(F)cc3)c(-c3ccncc3)[nH]2)cc1 (stereo not given) | 66.8

Each molecule was assayed against MELK (human) (UniProt Q14680) in the same assay as above. Conditions: compound 0.5 µM; ATP 10 µM.
Sequence of MELK (human) (Q14680 whole entry, looked up): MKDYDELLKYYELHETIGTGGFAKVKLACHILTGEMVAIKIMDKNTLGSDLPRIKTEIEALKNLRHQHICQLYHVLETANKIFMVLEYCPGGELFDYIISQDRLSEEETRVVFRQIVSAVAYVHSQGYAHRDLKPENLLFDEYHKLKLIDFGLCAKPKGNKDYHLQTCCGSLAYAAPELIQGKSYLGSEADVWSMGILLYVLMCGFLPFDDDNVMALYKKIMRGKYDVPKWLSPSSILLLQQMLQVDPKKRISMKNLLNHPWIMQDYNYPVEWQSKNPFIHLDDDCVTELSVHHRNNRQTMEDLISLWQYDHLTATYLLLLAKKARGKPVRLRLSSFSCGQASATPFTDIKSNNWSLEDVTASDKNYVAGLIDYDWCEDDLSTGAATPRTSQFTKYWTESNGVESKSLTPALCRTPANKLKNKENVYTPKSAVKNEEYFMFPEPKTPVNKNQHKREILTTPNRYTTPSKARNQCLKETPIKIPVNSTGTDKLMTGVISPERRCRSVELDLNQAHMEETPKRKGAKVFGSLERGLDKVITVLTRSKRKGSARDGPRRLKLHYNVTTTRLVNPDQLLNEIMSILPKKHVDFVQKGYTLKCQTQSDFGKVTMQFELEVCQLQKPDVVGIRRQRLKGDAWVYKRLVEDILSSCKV

SMILES | residual activity [%]
CC(C)[C@H](CO)Nc1nc(Nc2cccc(Cl)c2)c2ncn(C(C)C)c2n1 | 69.5
COc1cc2ncnc(Nc3ccc(F)c(Cl)c3)c2cc1OCCCN1CCOCC1 | 77.7
C#Cc1cccc(Nc2ncnc3cc(OCCOC)c(OCCOC)cc23)c1 | 88.6
CC(C)(C)c1nc2c3ccc(F)cc3c3c(=O)[nH]ccc3c2[nH]1 | 5.23
CS(=O)c1ccc(-c2nc(-c3ccc(F)cc3)c(-c3ccncc3)[nH]2)cc1 (stereo not given) | 102

The molecules below were run against MAP3K11 (human) (UniProt Q16584) in the same assay as above. Conditions: compound 0.5 µM; ATP 10 µM.
Sequence of MAP3K11 (human) (Q16584 whole entry, looked up): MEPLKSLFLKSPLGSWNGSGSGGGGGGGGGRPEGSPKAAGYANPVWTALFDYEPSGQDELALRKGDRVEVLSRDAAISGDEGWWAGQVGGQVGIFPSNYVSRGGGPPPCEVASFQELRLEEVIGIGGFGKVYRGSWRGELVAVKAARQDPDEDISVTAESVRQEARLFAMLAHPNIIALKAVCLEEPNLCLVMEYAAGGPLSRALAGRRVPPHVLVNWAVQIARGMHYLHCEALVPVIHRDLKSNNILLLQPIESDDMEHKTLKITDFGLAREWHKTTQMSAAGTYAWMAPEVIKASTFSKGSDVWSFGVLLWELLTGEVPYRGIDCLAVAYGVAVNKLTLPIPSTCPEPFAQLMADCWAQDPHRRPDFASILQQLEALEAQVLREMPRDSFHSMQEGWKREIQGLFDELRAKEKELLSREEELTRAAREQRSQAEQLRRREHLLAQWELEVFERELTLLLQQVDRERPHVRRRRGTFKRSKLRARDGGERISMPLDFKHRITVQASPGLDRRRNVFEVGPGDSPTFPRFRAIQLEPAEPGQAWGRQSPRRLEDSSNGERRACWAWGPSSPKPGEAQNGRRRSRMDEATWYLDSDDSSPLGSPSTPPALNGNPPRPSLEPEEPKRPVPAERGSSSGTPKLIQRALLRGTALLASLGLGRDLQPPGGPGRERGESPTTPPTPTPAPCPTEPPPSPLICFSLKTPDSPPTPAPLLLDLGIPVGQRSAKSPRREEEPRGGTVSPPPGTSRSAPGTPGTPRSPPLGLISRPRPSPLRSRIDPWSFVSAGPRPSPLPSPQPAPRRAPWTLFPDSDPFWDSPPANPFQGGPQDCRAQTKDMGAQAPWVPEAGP

SMILES | residual activity [%]
CC(C)[C@H](CO)Nc1nc(Nc2cccc(Cl)c2)c2ncn(C(C)C)c2n1 | 40.2
COc1cc2ncnc(Nc3ccc(F)c(Cl)c3)c2cc1OCCCN1CCOCC1 | 102
C#Cc1cccc(Nc2ncnc3cc(OCCOC)c(OCCOC)cc23)c1 | 104
CC(C)(C)c1nc2c3ccc(F)cc3c3c(=O)[nH]ccc3c2[nH]1 | 57
CS(=O)c1ccc(-c2nc(-c3ccc(F)cc3)c(-c3ccncc3)[nH]2)cc1 (stereo not given) | 96.4

These molecules were tested against DYRK3 (human) (UniProt O43781) in the same assay as above. Conditions: compound 0.5 µM; ATP 10 µM.
Sequence of DYRK3 (human) (O43781 whole entry, looked up): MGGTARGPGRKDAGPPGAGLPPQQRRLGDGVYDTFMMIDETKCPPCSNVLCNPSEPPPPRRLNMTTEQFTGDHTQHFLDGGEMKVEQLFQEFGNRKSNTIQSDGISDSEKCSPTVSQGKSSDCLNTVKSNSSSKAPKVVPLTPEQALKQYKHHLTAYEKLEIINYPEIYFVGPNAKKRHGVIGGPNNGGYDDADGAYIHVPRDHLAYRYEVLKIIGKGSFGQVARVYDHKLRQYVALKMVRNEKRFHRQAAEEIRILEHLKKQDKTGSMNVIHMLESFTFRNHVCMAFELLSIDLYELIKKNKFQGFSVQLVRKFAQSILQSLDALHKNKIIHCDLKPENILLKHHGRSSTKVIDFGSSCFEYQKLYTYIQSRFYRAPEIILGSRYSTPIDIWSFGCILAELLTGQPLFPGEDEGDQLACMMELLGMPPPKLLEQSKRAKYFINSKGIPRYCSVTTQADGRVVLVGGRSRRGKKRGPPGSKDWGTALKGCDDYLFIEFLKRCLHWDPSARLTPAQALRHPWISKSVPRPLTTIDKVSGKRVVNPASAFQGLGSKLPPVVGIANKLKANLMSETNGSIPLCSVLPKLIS

SMILES | residual activity [%]
CC(C)[C@H](CO)Nc1nc(Nc2cccc(Cl)c2)c2ncn(C(C)C)c2n1 | 105
COc1cc2ncnc(Nc3ccc(F)c(Cl)c3)c2cc1OCCCN1CCOCC1 | 85
C#Cc1cccc(Nc2ncnc3cc(OCCOC)c(OCCOC)cc23)c1 | 83.5
CC(C)(C)c1nc2c3ccc(F)cc3c3c(=O)[nH]ccc3c2[nH]1 | 105
CS(=O)c1ccc(-c2nc(-c3ccc(F)cc3)c(-c3ccncc3)[nH]2)cc1 (stereo not given) | 99

Each molecule was assayed against NEK9 (human) (UniProt Q8TD19) in the same assay as above. Conditions: compound 0.5 µM; ATP 10 µM.

SMILES | residual activity [%]
CC(C)[C@H](CO)Nc1nc(Nc2cccc(Cl)c2)c2ncn(C(C)C)c2n1 | 93.1
COc1cc2ncnc(Nc3ccc(F)c(Cl)c3)c2cc1OCCCN1CCOCC1 | 99.3
C#Cc1cccc(Nc2ncnc3cc(OCCOC)c(OCCOC)cc23)c1 | 99.5
CC(C)(C)c1nc2c3ccc(F)cc3c3c(=O)[nH]ccc3c2[nH]1 | 71.7
CS(=O)c1ccc(-c2nc(-c3ccc(F)cc3)c(-c3ccncc3)[nH]2)cc1 (stereo not given) | 99.1

Each molecule was assayed against RPS6KA6 KD1 KD2 (human) (UniProt Q9UK32) in the same assay as above. Conditions: compound 0.5 µM; ATP 10 µM.

SMILES | residual activity [%]
CC(C)[C@H](CO)Nc1nc(Nc2cccc(Cl)c2)c2ncn(C(C)C)c2n1 | 96.8
COc1cc2ncnc(Nc3ccc(F)c(Cl)c3)c2cc1OCCCN1CCOCC1 | 95.2
C#Cc1cccc(Nc2ncnc3cc(OCCOC)c(OCCOC)cc23)c1 | 99.1
CC(C)(C)c1nc2c3ccc(F)cc3c3c(=O)[nH]ccc3c2[nH]1 | 33.9
CS(=O)c1ccc(-c2nc(-c3ccc(F)cc3)c(-c3ccncc3)[nH]2)cc1 (stereo not given) | 110

These molecules were tested against CAMK1 (human) (UniProt Q14012) in the same assay as above. Conditions: compound 0.5 µM; ATP 10 µM.
Sequence of CAMK1 (human) (Q14012 whole entry, looked up): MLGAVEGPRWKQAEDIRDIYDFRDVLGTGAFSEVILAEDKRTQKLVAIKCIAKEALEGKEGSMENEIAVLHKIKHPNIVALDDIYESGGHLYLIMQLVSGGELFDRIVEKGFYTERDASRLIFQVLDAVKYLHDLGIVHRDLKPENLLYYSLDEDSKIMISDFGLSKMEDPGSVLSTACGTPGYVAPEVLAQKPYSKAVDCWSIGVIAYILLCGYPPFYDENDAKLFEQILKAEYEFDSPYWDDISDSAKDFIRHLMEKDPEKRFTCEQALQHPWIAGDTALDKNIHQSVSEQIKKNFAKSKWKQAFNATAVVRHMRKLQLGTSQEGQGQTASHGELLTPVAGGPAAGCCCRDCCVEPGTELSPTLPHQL

SMILES | residual activity [%]
CC(C)[C@H](CO)Nc1nc(Nc2cccc(Cl)c2)c2ncn(C(C)C)c2n1 | 110
COc1cc2ncnc(Nc3ccc(F)c(Cl)c3)c2cc1OCCCN1CCOCC1 | 102
C#Cc1cccc(Nc2ncnc3cc(OCCOC)c(OCCOC)cc23)c1 | 98.9
CC(C)(C)c1nc2c3ccc(F)cc3c3c(=O)[nH]ccc3c2[nH]1 | 79.3
CS(=O)c1ccc(-c2nc(-c3ccc(F)cc3)c(-c3ccncc3)[nH]2)cc1 (stereo not given) | 106

Each molecule was assayed against PRKCZ (human) (UniProt Q05513) in the same assay as above. Conditions: compound 0.5 µM; ATP 10 µM.

SMILES | residual activity [%]
CC(C)[C@H](CO)Nc1nc(Nc2cccc(Cl)c2)c2ncn(C(C)C)c2n1 | 102
COc1cc2ncnc(Nc3ccc(F)c(Cl)c3)c2cc1OCCCN1CCOCC1 | 92.5
C#Cc1cccc(Nc2ncnc3cc(OCCOC)c(OCCOC)cc23)c1 | 92.3
